Experimental data as given in patent US7993687B2, “Compositions and methods for management of diabetes” (priority 2006, dated 2011).

Columns and labels:
[1] = system: S6 ribosomal protein (Ser235/236); assay: Western blot of ribosomal protein S6 phosphorylation in H4IIE cells; type: cell-based, rat; settings: 6 minutes
Method: Tissue culture media, antibiotics, fetal bovine serum (FBS) and Nunc tissue culture plates were purchased from Invitrogen Canada Inc. (Burlington, Ontario, Canada, L7P 1A1). Insulin (Sigma-Aldrich Canada Ltd., Oakville, Ontario, Canada, L6H 6J8) was dissolved in water and added directly to cells at a concentration of 250 nM unless otherwise indicated. The BWE was prepared and analyzed as described in Example 1. Two μL of the BWE were added directly to cells unless otherwise indicated. This amount was chosen on the basis of equivalence to insulin. […]
Cellular protein extracts were prepared by addition of 200 μL 2×SDS/gel loading buffer (0.125 M Tris pH 6.8, 2% SDS, 10% glycerol) to H4IIE cells in 12-well culture dishes. The samples were briefly sonicated, and protein content measured using the BCA protein assay kit. […] HRP was detected using the ECL chemiluminescent system after the membranes had been washed four times.
Quantification of data obtained on film (Kodak X-omat) was accomplished with a GS800 imaging densitometer (Bio-Rad Laboratories) under nonsaturating conditions with local background subtraction. […]

[2] = system: p42/44 MAPK (Thr202/Tyr204); assay: Western blot of MAPK phosphorylation in H4IIE cells; type: cell-based, rat; settings: for phosphorylation of MAPK (FIG. 9): 6 minutes, insulin 250 nM, 2 μL of BWE, D-CI or MI solution
Method: Tissue culture media, antibiotics, fetal bovine serum (FBS) and Nunc tissue culture plates were purchased from Invitrogen Canada Inc. (Burlington, Ontario, Canada, L7P 1A1). Insulin (Sigma-Aldrich Canada Ltd., Oakville, Ontario, Canada, L6H 6J8) was dissolved in water and added directly to cells at a concentration of 250 nM unless otherwise indicated. The BWE was prepared and analyzed as described in Example 1. Two μL of the BWE were added directly to cells unless otherwise indicated. […] Myo-inositol (Sigma-Aldrich Canada Ltd.) and D-chiro-inositol (Industrial Research Ltd., Wellington, New Zealand) were dissolved in water at an equal concentration to the amounts present in the BWE (Table 3) and 2 μL of each solution (0.1% v/v final concentration) was added directly to cells.
(§1) Rat H4IIE hepatoma cells (American Type Culture Collection, CRL 1548) were cultured following the method disclosed by Yau et al., (1998, Eur. J. Biochem. 253: 91-1). The H4IIE cells were maintained in α-modified Eagle's media containing 10% FBS, 2 mM glutamine, 25 μg·mL^−1 streptomycin and 25 units·mL^−1 penicillin. Cells were plated and grown to 70% confluence. All cells were placed into serum-free medium for 72 h before addition of stimulating agents to ensure entry into a quiescent state.
(§2) Cultures of quiescent H4IIE cells or quiescent FAO cells were placed into 12-well culture dishes containing 2 mL serum-free medium, and then stimulated by direct addition of the inhibitors listed in Table 1 (volumes of additions were 10 μL or less) without replacing the medium. […] The cells in 12-well culture dishes were incubated with stimulating agents for 6 minutes and rinsed with phosphate buffered saline (PBS; 0.9% NaCl, 0.1 M Na3PO4, pH 7.1).
(§3) Cellular protein extracts were prepared by addition of 200 μL 2×SDS/gel loading buffer (0.125 M Tris pH 6.8, 2% SDS, 10% glycerol) to H4IIE cells in 12-well culture dishes. The samples were briefly sonicated, and protein content measured using the BCA protein assay kit. Aliquots containing equal amounts of protein were mixed with bromophenol blue (0.5% (w/v) final concentration) and 2-mercaptoethanol (5% (v/v) final concentration), heated at 95° C. and loaded onto 7.5% or 10% polyacrylamide gels. […] Primary antibodies (diluted 1:1000 in 3% (w/v) BSA) were incubated with the membrane for 60 min at 22° C. Membranes were subsequently washed four times and incubated for an additional 60 min at 1 8-22° C. in 1% (w/v) BSA-TBST with diluted HRP-coupled secondary antibody (1:10 000). HRP was detected using the ECL chemiluminescent system after the membranes had been washed four times.
Quantification of data obtained on film (Kodak X-omat) was accomplished with a GS800 imaging densitometer (Bio-Rad Laboratories) under nonsaturating conditions with local background subtraction. Although multiple exposures were acquired to ensure the absence of film saturation, the experimental figures typically show longer exposures selected specifically for visual presentation and not necessarily used for data analysis. Graphical data are presented as means±SE for a minimum of three replicate samples. […]

[3] = system: Raf (Ser259); assay: Western blot of Raf phosphorylation in H4IIE cells; type: cell-based, rat; settings: for Raf (Ser259) phosphorylation, stimulation (fold) relative to the control: 6 min, one experiment
Method: (§4) Tissue culture media, antibiotics, fetal bovine serum (FBS) and Nunc tissue culture plates were purchased from Invitrogen Canada Inc. (Burlington, Ontario, Canada, L7P 1A1). Insulin (Sigma-Aldrich Canada Ltd., Oakville, Ontario, Canada, L6H 6J8) was dissolved in water and added directly to cells at a concentration of 250 nM unless otherwise indicated. The BWE was prepared and analyzed as described in Example 1. Two μL of the BWE were added directly to cells unless otherwise indicated. This amount was chosen on the basis of equivalence to insulin. Myo-inositol (Sigma-Aldrich Canada Ltd.) and D-chiro-inositol (Industrial Research Ltd., Wellington, New Zealand) were dissolved in water at an equal concentration to the amounts present in the BWE (Table 3) and 2 μL of each solution (0.1% v/v final concentration) was added directly to cells.
as §1, §2, §3
(§5) Quantification of data obtained on film (Kodak X-omat) was accomplished with a GS800 imaging densitometer (Bio-Rad Laboratories) under nonsaturating conditions with local background subtraction. Although multiple exposures were acquired to ensure the absence of film saturation, the experimental figures typically show longer exposures selected specifically for visual presentation and not necessarily used for data analysis. Graphical data are presented as means±SE for a minimum of three replicate samples.

[4] = system: PDK-1 (Ser241); assay: Western blot of PDK-1 phosphorylation in H4IIE cells; type: cell-based, rat; settings: for PDK-1 (Ser241) phosphorylation, stimulation (fold) relative to the control: 6 min, one experiment
Method: as §4, §1, §2, §3, §5

[5] = system: p70S6K (Thr389 and Thr421); assay: Western blot of p70S6K phosphorylation in H4IIE cells; type: cell-based, rat
Method: as §4, §1, §2, §3, §5

[6] = system: plasma glucose; settings: normal rats; synthetic D-CI intragastrically 2 hours before intraperitoneal glucose load (4 g/kg); cited from earlier work
[7] = insulin-stimulated, 6 min, 15-min preincubation with the inhibitor (None = insulin alone), one experiment
[8] = insulin-stimulated, 15-min preincubation with the inhibitor (None = insulin alone)
[9] = BWE-stimulated, 15-min preincubation with the inhibitor (None = BWE alone)

Row | Compound | phosphorylation of ribosomal protein S6 [1] | phosphorylation of MAPK (FIG. 9) [2] | phosphorylation of MAPK, stimulation (fold) relative to the control (Table 6) ([2]; insulin treatment, 6 min, 15-min preincubation with PKA/PKC inhibitor (None = insulin alone), one experiment) | p42/44 P-MAPK (Thr202/Tyr204) phosphorylation, stimulation (fold) relative to the control [2, 7] | phosphorylation (activation) of RAF ([3]; 6 minutes) | Raf (Ser259) phosphorylation, stimulation (fold) relative to the control [3, 8] | phosphorylation (activation) of PDK ([4]; 6 minutes) | PDK-1 (Ser241) phosphorylation, stimulation (fold) relative to the control [4, 8] | phosphorylation of p70S6K (Thr389) ([5]; 6 minutes) | phosphorylation of p70S6K (Thr421) ([5]; 6 minutes) | decrease in plasma glucose [6] | p42/44 P-MAPK (Thr202/Tyr204) phosphorylation, stimulation (fold) relative to the control ([2]; BWE-stimulated, 6 min, 15-min preincubation with the inhibitor (None = BWE alone), one experiment) | effect of the inhibitor on insulin- and BWE-stimulated phosphorylation of MAPK ([2]; preincubation with inhibitor, then insulin or BWE for 6 minutes) | Raf (Ser259) phosphorylation, stimulation (fold) relative to the control [3, 9] | PDK-1 (Ser241) phosphorylation, stimulation (fold) relative to the control [4, 9] | effect of the inhibitor on insulin-stimulated phosphorylation of p70S6K (Thr389) ([5]; 15-minute pre-incubation with inhibitor, then INS 6 minutes) | effect of the inhibitor on insulin- and BWE-stimulated phosphorylation of p70S6K (Thr421) ([5]; 15-minute pre-incubation with inhibitor, then INS or BWE 6 minutes)
1 | insulin: Insulin (Sigma-Aldrich) dissolved in water, positive comparator | insulin did | increased the phosphorylation of MAPK | 3.53 fold | 13.3 fold | not stimulated | 0.53 fold | not stimulated | 1.57 fold | stimulates the phosphorylation of p70^S6K on both residues | stimulates the phosphorylation of p70^S6K on both residues | – | – | – | – | – | – | –
2 | OC1C(O)C(O)C(O)C(O)C1O [D-CI, D-chiro-inositol] | – | neither D-CI nor MI increased phosphorylation | – | – | – | – | – | – | – | unable to effect phosphorylation | 30-50% | – | – | – | – | – | –
3 | O[C@H]1[C@H](O)[C@@H](O)[C@H](O)[C@@H](O)[C@H]1O [MI, myo-inositol] | – | neither D-CI nor MI increased phosphorylation | – | – | – | – | – | – | – | unable to effect phosphorylation | – | – | – | – | – | – | –
4 | COc1cccc(-c2cc(=O)c3ccccc3o2)c1N [PD98059] | – | – | – | 1 fold | – | 0.20 fold | – | 1.89 fold | – | – | – | 1.00 fold | inhibited | 0.20 fold | 0.54 fold | independent of MAPK | MAPK-dependent (PD98059 sensitive)
